“Also recorded” adds a separate entry of the source. Where two headings read alike, the source gives them in different places.
Assays:
5-LOX = 5-LOX (Rattus norvegicus, UniProt P12527); conditions: two weeks, male F344 rats
Protocol: Male F344 rats at 8 weeks of age treated with AOM (15 mg/Kg BW) and exposed to 2% DSS for three days. […] Further, the inflammation was scored by following below criteria: […]

[1] = system: inflammatory cytokines and receptors; conditions: 800 ppm in diet, AOM-induced rat colon tumors
Protocol: Colonic tumors (CTs) were induced by colon specific carcinogen Azoxymethane (15 mg/kg by wt, once weekly for 2 weeks) in F344 rats at 8 weeks' age. […] Rats were killed 36 weeks after second AOM and analyzed for inflammatory cytokines and receptors and compared with control diet fed rat colonic tumors.

[2] = stored in food cups for seven days
Protocol: Then aliquots of samples taken from the top, middle and bottom portions of the diets were analyzed for agents homogeneity of the experimental diets. […] Based on this information, frequency of preparation of experimental diets was once a week, and food cups were changed 3 times a week.

[3] = for Major Organ Toxicity / Ulceration (Grade) Colon / Ulceration (Grade) Small Intestine / Ulceration (Grade) Stomach / Liver enzymes ALKP / Liver enzymes ALT / Liver enzymes AST / Liver enzymes LDH: male C57 mice; for Liver enzymes ALKP / Liver enzymes ALT / Liver enzymes AST / Liver enzymes LDH: Mean ± SEM
Protocol: Body weights and symptoms of toxicity were recorded twice weekly for 6 weeks. […] All organs were examined grossly for any abnormalities upon necropsy. Livers, kidney, stomach, intestinal tract, and blood were obtained from the animals and analyzed for Liver enzyme profile, GI ulceration, and levels of test agents.
All animals found dead will be necropsied to confirm that the most likely cause of death was due to intestinal ulcerations.

[4] = system: AOM plus DSS induced colonic inflammation; conditions: for AOM-DSS-Induced Inflammation Score: two weeks, male F344 rats
Text: Inflammation Score based on histological observations using the modified Sydney classification for colonic inflammation:
Following score criteria has been applied: • i. Score 0: No inflammation or changes in the colonic crypt morphology • ii. Score 1. Presence of neutrophil infiltration and chronic lymphocytic inflammation. • iii. Score 2. Surface epithelial damage, mild atrophy, lymphoid follicles • iv. Score 3: Severe atrophy and intestinal metaplasia.

[5] = system: small intestinal polyps and colon tumors of Apc Min/+ mice; conditions: for intestinal tumor inhibition: high-dose (700 ppm)
Protocol: Male Apc^Min/+ (C57BL/6J) and female wild-type littermate mice were initially purchased from The Jackson Laboratory (Bar Harbor, Me.) as founders, and our own breeding colony was established in OUHSC rodent barrier facility and genotyped according to vendor's instructions. All mice were housed 3 per cage in ventilated cages under standardized conditions (21° C., 60% relative humidity, 12 h light/12 h dark cycle, 20 air changes/hr). All mice were allowed ad libitum access to the respective diets and automated tap water purified by reverse osmosis.
All diet ingredients for the semi-purified diets were purchased from Bioserve (Frenchtown, N.J.) and stored at 4° C. before diet preparation. Diets were based on the modified American Institute of Nutrition (AIN)-76A diet. […] Both control and experimental diets were prepared weekly and stored in a cold room. Agent content in the experimental diets was determined periodically in multiple samples taken from the top, middle, and bottom portions of individual diet preparations to verify uniform distribution.
Genotyped Male and female Apc^Min/+ mice were used in the efficacy study. Five week old mice were distributed so that average body weights in each group were equal (10/9 Apc^Min/+ mice in each group) and were fed with AIN-76A diet for one week. […] Body weight, food, and fluid consumption were monitored weekly for signs of weight loss or lethargy that might indicate intestinal obstruction or anemia. Mice were routinely checked for any abnormalities. After 12 weeks, all mice were euthanized by CO2 asphyxiation, blood was collected immediately by heart puncture, and serum was separated by centrifugation and stored at −80° C. until further analysis. […] After necropsy, the entire intestinal tract was harvested, flushed with 0.9% NaCl and opened longitudinally from the esophagus to the distal rectum. The tissue was flattened on filter paper to expose the tumors and briefly frozen on dry ice to aid visual scoring of tumors. The number, location, and size of visible tumors in the entire intestine were determined under a dissection microscope (×5). All tumors were scored and subdivided by location (duodenal, jejunal and ileum and colon) and size (>2 mm, 1-2 or <1 mm in diameter). This procedure was completed by two individuals who were blinded to the experimental group and the genetic status of the mice. Colonic and other small intestinal tumors that required further histopathologic evaluation to identify adenoma, adenocarcinoma, and enlarged lymph nodes were fixed in 10% neutral-buffered formalin, embedded in paraffin blocks, and processed by routine H&E staining.
All results are expressed as mean±SE and were analyzed by Student's t test. Differences were considered significant at the P<0.05 level.

[6] = 350 and 700 ppm, female Apc Min/+ mice
[7] = 350 ppm in diet, female Apc Min/+ mice
[8] = 350 ppm in diet, male Apc Min/+ mice
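Wherever Major Organ Toxicity is given: gross examination of all organs at necropsy, with liver enzyme profile and GI ulceration assessed in collected tissues and blood.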
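Wherever Ulceration (Grade) Colon is given: gross examination of all organs at necropsy, with liver enzyme profile and GI ulceration assessed in collected tissues and blood.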
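Wherever Ulceration (Grade) Small Intestine is given: gross examination of all organs at necropsy, with liver enzyme profile and GI ulceration assessed in collected tissues and blood.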
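Wherever Ulceration (Grade) Stomach is given: gross examination of all organs at necropsy, with liver enzyme profile and GI ulceration assessed in collected tissues and blood.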

5-LOX, sequence (P12527 whole entry): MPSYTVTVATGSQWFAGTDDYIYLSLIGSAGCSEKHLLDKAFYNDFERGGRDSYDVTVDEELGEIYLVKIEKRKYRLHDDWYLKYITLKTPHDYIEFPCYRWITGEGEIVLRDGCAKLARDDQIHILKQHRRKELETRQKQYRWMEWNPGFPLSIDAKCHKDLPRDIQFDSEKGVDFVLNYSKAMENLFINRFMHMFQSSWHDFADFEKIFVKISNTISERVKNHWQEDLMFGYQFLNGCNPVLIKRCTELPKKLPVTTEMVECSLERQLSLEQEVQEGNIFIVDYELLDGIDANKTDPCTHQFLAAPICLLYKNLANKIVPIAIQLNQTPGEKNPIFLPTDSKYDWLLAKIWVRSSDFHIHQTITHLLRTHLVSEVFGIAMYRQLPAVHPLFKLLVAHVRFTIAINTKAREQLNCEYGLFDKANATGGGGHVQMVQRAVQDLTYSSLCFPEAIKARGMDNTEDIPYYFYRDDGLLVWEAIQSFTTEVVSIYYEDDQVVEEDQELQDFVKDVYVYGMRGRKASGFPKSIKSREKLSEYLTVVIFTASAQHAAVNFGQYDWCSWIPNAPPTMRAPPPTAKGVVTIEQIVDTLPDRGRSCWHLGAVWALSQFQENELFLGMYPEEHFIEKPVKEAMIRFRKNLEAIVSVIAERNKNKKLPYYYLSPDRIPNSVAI

## CC1(C)Cc2c(-c3ccccc3)c(-c3ccc(Cl)cc3)c(CC(=O)NCC(=O)O)n2C1 [LFA-9, licofelone-glycine]
5-LOX; 100 ppm in diet
  AOM-DSS-Induced 5-LOX (colonic mucosa): 14.5%
5-LOX; 200 ppm in diet
  AOM-DSS-Induced 5-LOX (colonic mucosa): 22.6%
5-LOX; 400 ppm in diet
  AOM-DSS-Induced 5-LOX (colonic mucosa): 63.7%
5-LOX; 600 ppm in diet
  AOM-DSS-Induced 5-LOX (colonic mucosa): 74.7%
5-LOX; 800 ppm in diet
  AOM-DSS-Induced 5-LOX (colonic mucosa): 88.3%
[1]
  inflammatory cytokines and their receptors (PCR array) in colon tumors versus control: significantly decreased
[2]
  stability in diet: > 96%
[3]; 100 ppm in diet, 6 weeks
  Major Organ Toxicity: None
  Ulceration (Grade) Colon: Grade 0
  Ulceration (Grade) Small Intestine: Grade 0
  Ulceration (Grade) Stomach: Grade 0
  Liver enzymes ALKP: 178 ± 32 units/L
  Liver enzymes ALT: 82 ± 15 units/L
  Liver enzymes AST: 75 ± 8.5 units/L
  Liver enzymes LDH: 408 ± 28 units/L
[3]; 200 ppm in diet, 6 weeks
  Major Organ Toxicity: None
  Ulceration (Grade) Colon: Grade 0
  Ulceration (Grade) Small Intestine: Grade 0
  Ulceration (Grade) Stomach: Grade 0
  Liver enzymes ALKP: 184 ± 30 units/L
  Liver enzymes ALT: 98 ± 13 units/L
  Liver enzymes AST: 83 ± 10 units/L
  Liver enzymes LDH: 394 ± 19 units/L
[3]; 400 ppm in diet, 6 weeks
  Major Organ Toxicity: None
  Ulceration (Grade) Colon: Grade 0
  Ulceration (Grade) Small Intestine: Grade 0
  Ulceration (Grade) Stomach: Grade 0
  Liver enzymes ALKP: 187 ± 38 units/L
  Liver enzymes ALT: 93 ± 15 units/L
  Liver enzymes AST: 68 ± 7.5 units/L
  Liver enzymes LDH: 379 ± 29 units/L
[3]; 800 ppm in diet, 6 weeks
  Major Organ Toxicity: None
  Ulceration (Grade) Colon: Grade 0
  Ulceration (Grade) Small Intestine: Grade 0
  Ulceration (Grade) Stomach: Grade 0
  Liver enzymes ALKP: 181 ± 27 units/L
  Liver enzymes ALT: 104 ± 13 units/L
  Liver enzymes AST: 82 ± 11 units/L
  Liver enzymes LDH: 422 ± 43 units/L
[3]; 800 ppm in diet, C57BL/6 mice
  body weight loss or gross histological symptoms of toxicity: do not induce any body weight loss or gross histological symptoms of toxicity
[3]; 1,600 ppm in diet, 6 weeks
  Major Organ Toxicity: Liver
  Ulceration (Grade) Colon: Grade 1
  Ulceration (Grade) Small Intestine: Grade 0
  Ulceration (Grade) Stomach: Grade 1
  Liver enzymes ALKP: 288 ± 24 units/L
  Liver enzymes ALT: 158 ± 18 units/L
  Liver enzymes AST: 132 ± 17 units/L
  Liver enzymes LDH: 589 ± 42 units/L
[3]; 1,600 ppm in diet, mice
  animals died at the end of six-week exposure: 3 animals
  colonic ulceration at microscopic level: Grade 1 to 2
  liver toxicity by gross pathology: modest liver toxicity
  stomach ulceration at microscopic level: Grades 2 to 3
[3]; 1,600 ppm in diet, six weeks, mice
  body weight loss as compared to control diet fed mice body weight gain: ~30%
[3]; doses up to 800 ppm in diet
  ulceration: no ulceration
[3]; up to 800 ppm in diet, 6 weeks
  toxicity and body weight gain: does not induce any toxicity; also recorded: did not exhibit toxicity
[4]; 100 ppm in diet
  AOM-DSS-Induced Inflammation Score: 1
[4]; 200 ppm in diet
  AOM-DSS-Induced Inflammation Score: 0 to 1
[4]; 400 ppm in diet
  AOM-DSS-Induced Inflammation Score: 0
[4]; 600 ppm in diet
  AOM-DSS-Induced Inflammation Score: 0
[4]; 800 ppm in diet
  AOM-DSS-Induced Inflammation Score: 0
[4]; >100 ppm in diet, AOM-DSS rats
  infiltration of inflammatory cells in colonic mucosa and submucosa: significantly suppressed infiltration of inflammatory cells
[4]; >100 ppm in diet, AOM/DSS rats
  inflammation: completely blocked inflammation
[4]; all rats fed LFA-9, lowest to highest doses (100-800 ppm)
  inflammation score: Score 1 (lowest to highest doses) or no inflammation
[4]; up to 800 ppm in diet
  toxicity in male F344 rats: did not induce significant toxicity
[5]; [6]
  colonic tumors per mouse: 0.1 tumors per mouse
  reduction in the colonic tumors: 90%
[5]; [7]
  colon tumor inhibition: 90%
  fewer polyps with sizes greater than 2 mm: 81.6%
[5]; [8]
  colon tumor inhibition: 60%
  fewer polyps with sizes greater than 2 mm: 76.8%
  total intestinal tumors (polyps), means±SEM: 31.6±5.99
[5]; 700 ppm in diet, both genders, Apc Min/+ mice
  suppression of polyps of greater than 2 mm size: more than 81%
[5]; 700 ppm in diet, both male and female Apc Min/+ mice
  inhibition of colon tumors: 91%
[5]; 700 ppm in diet, female Apc Min/+ mice
  total intestinal tumors (polyps), means±SEM: 15.5±1.79
[5]; 700 ppm in diet, male Apc Min/+ mice
  total intestinal tumors (polyps), means±SEM: 24.3±3.7
[5]; LFA-9 in diet (350, 700 ppm)
  body weights of Apc Min/+ mice versus control diet: higher weight gains
[5]; female Apc Min/+ mice
  intestinal tumor inhibition: 73.8%
[5]; male Apc Min/+ mice
  intestinal tumor inhibition: approximately 56%
[5]; wild-type mice
  gross changes attributable to toxicity in liver, kidneys or lungs; body weight gain: did not produce any gross changes attributable to toxicity
